Experimental data from US20250057808A1, “COMPOSITION COMPRISING BETA LACTAM FOR TREATING ALCOHOL DEPENDENCE AND ALCOHOL ASSOCIATED DISEASES OR CONDITIONS” (Temple University of the Commonwealth System of Higher …, priority 2023, published 2025).
Entries after “also recorded” stand apart in the source; their conditions may differ.

Key:
[1] = Ethanol-intake model (section C); format: in vivo, Male P rats
Method: Male P rats were obtained from Indiana University School of Medicine (Indianapolis, IN, USA). P rats were ˜90 days old at the beginning of the drinking paradigms. P rats were used in this study as they fit the necessary criteria of ethanol preference. P rats may consume freely ethanol (15% and 30%, v/v) and achieve a pharmacologically blood alcohol concentration (BACs) of 50-200 mg % as shown in previous studies from Indiana University. Rats were housed in a room kept at 21° C. on a 12/12-hour light/dark cycle and had free access to water and food. All experimental procedures were approved by the Institutional Animal Care and Use Committee (IACUC) at University of Toledo under protocol #400160, in accordance with all guidelines of IACUC of the National Institute of Health, and the Guide for the Care and Use of Laboratory Animals.
Rats were assigned to three groups prior to the start of the experiments based on their weights, and the average weights of each group were similar between all groups. Male P rats were divided into three groups: a) Control/water group was exposed to water for five weeks and received saline vehicle injection (i.p.) every 24 hours during Week 6 for a total of five days; b) Ethanol/saline group was exposed to free choice of ethanol (15% and 30%, v/v) as well as water for 5 weeks and received saline vehicle (i.p.) every 24 hours during Week 6 for a total of five days; c) Ethanol/MC-100093 group was exposed to free choice of ethanol (15% and 30%, v/v) as well as water for 5 weeks and received MC-100093 (100 mg/kg, i.p.) every 24 hours during Week 6 for 5 days (FIG. 16). […]
The baseline was calculated by taking the average of the prior 5 weeks of water and ethanol consumption as rat weight. […] As weights of the bottles were recorded, the measurements were converted using g of ethanol intake/kg of body weight/day formula to determine ethanol consumption in g/kg of body weight. […]
Statistical analyses were performed using GraphPad Prism Version 10. […] Statistical significance was determined by a p-value of or less than 0.05.

[2] = cited from earlier work
[3] = Ethanol drinking paradigm, three-bottle choice (MC-100093 50 mg/kg vs ceftriaxone 200 mg/kg); format: in vivo, P rats
Method: P rats were received from Indiana University School of Medicine (Indianapolis, IN, USA), and were housed in a 21° C. on a 12/12 h light/dark cycle-maintained room where they had free access to water and food. All experimental procedures were approved by the Institutional Animal Care and Use Committee (IACUC) of The University of Toledo, in accordance with the guidelines governing the use of animals in research of the National Institutes of Health as described in the Guidefor the Care and Use of Laboratory Animals.
We used an ethanol drinking paradigm as described previously by Alhaddad, et al. (2014). Briefly, animals started the experimental drinking procedure at age of 90 days. The animals had five weeks of exposure to continuous three-bottle choice drinking, 0%, 15% and 30%, v/v ethanol in water, available concurrently. Daily measurement of ethanol intake was performed (g of ethanol intake/kg of body weight/day). We measured the baseline ethanol drinking by average the intake during the last three weeks. Three groups of P rats (n=8-9/group) exposed to the five weeks ethanol exposure. At week 6, rats in each group received daily intraperitoneal injection of either MC-100093 at dose of 50 mg/kg (Ethanol-MC group), Ceftriaxone at dose of 200 mg/kg (Ethanol-CEF group, which also serves as positive control), or equivolume of saline vehicle (Ethanol group) for five days. This paradigm results in pharmacologically relevant blood alcohol concentration (50-200 mg %). Following the criteria for the development of ethanol dependence, rats whose average ethanol intake <4 g/kg/day were excluded from the study. Beside the ethanol exposed groups, another group of P rats (n=8) exposed to only water and food throughout the exposure procedures (control group).
All statistical analyses were conducted with Graphpad Prism software, with p-values of 0.05 or less being statistically significant. We performed a two-way (mixed model) ANOVA followed by Bonferroni multiple comparison post-hoc test to analyze 24 h ethanol consumption, 24 h water consumption, and daily body weight. For the Western blot and oil red O staining analysis, we performed one-way ANOVA with Newman-Keuls as a post hoc multiple comparison test to measure differences between groups as a percentage (relative to control values).

For `C[C@@H](O)[C@H]1C(=O)N[C@@H]1[C@@H](C)C(=O)N1CCN(C)CC1` [MC-100093], the Water intake ([1]; male P rats exposed to ethanol, 100 mg/kg i.p., day 5, 100 mg/kg) was “significant increase in water intake; also recorded: drank significantly more water than the ethanol/saline group”, the Body weight ([1]; male P rats, 100 mg/kg i.p. 5 days) was “no significant effect of Treatment by Day interaction on body weight” and the Ethanol intake ([1]; male P rats, 100 mg/kg i.p. days 1-5 of Week 6, vs saline vehicle, 100 mg/kg) was “reduced ethanol intake after 5-week drinking regimen; also recorded: significant decrease in ethanol intake; also recorded: reduced ethanol intake in P rats staring 24 hours after the first injection of the drug through the five days regimen; also recorded: robust effect in ethanol intake”. For the same compound, the Aqueous solubility [2] was “high aqueous solubility”, the “Body weight (grams)” value ([3]; MC-100093 50 mg/kg i.p. or ceftriaxone 200 mg/kg i.p. 5 days) was “Neither MC-100093 (50 mg/kg, i.p.) nor Ceftriaxone (200 mg/kg, i.p.) treatment has significant effect; also recorded: no significant effects” and the “Water intake (mL/day)” value ([3]; MC-100093 50 mg/kg i.p. or ceftriaxone 200 mg/kg i.p. 5 days, vs Ethanol-Saline group (MC-100093: at day 5 only)) was “significant increase in water consumption”. The “Ethanol consumption (g/kg of average body weight/24 hr)” value ([3]; P rats after 5 wk ethanol, MC-100093 50 mg/kg i.p. or ceftriaxone 200 mg/kg i.p. daily 5 days, vs Ethanol-Saline group) was “significant decrease in ethanol consumption from day 1 through day 5; also recorded: significantly reduced ethanol consumption from day 2 through day 5; also recorded: attenuated ethanol drinking behavior; also recorded: attenuated moderately ethanol intake as compared to ceftriaxone”.
